Results reported in PubChem BioAssay (NCI).
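Each compound was tested at five concentrations against cells in 96-well plates for 48 hours. Here, GI50 denotes the concentration required for 50% inhibition of growth. Definition used: TGI = concentration required for complete inhibition of growth.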

Tests used:
Assay in all cases: NCI anticancer screen, dose series, 48 h
786-0 renal = tested on: 786-0 renal
SK-MEL-2 melanoma = tested on: SK-MEL-2 melanoma
CAKI-1 renal = tested on: CAKI-1 renal
DU-145 prostate = tested on: DU-145 prostate
A549 NSCLC = tested on: A549 NSCLC
K-562 leukemia = tested on: K-562 leukemia
SR leukemia = tested on: SR leukemia
SK-MEL-5 melanoma = tested on: SK-MEL-5 melanoma
CCRF-CEM leukemia = tested on: CCRF-CEM leukemia
SF-268 CNS = tested on: SF-268 CNS
RXF 393 renal = tested on: RXF 393 renal
SN12C renal = tested on: SN12C renal
SK-MEL-28 melanoma = tested on: SK-MEL-28 melanoma
HCT-15 colon = tested on: HCT-15 colon
OVCAR-3 ovarian = tested on: OVCAR-3 ovarian
UACC-62 melanoma = tested on: UACC-62 melanoma
KM12 colon = tested on: KM12 colon
SF-295 CNS = tested on: SF-295 CNS
HOP-62 NSCLC = tested on: HOP-62 NSCLC
MALME-3M melanoma = tested on: MALME-3M melanoma
SK-OV-3 ovarian = tested on: SK-OV-3 ovarian
HS 578T breast = tested on: HS 578T breast
OVCAR-5 ovarian = tested on: OVCAR-5 ovarian
MOLT-4 leukemia = tested on: MOLT-4 leukemia
HCC-2998 colon = tested on: HCC-2998 colon
UACC-257 melanoma = tested on: UACC-257 melanoma
A498 renal = tested on: A498 renal
EKVX NSCLC = tested on: EKVX NSCLC
HOP-92 NSCLC = tested on: HOP-92 NSCLC
TK-10 renal = tested on: TK-10 renal
M14 melanoma = tested on: M14 melanoma
OVCAR-4 ovarian = tested on: OVCAR-4 ovarian
SW-620 colon = tested on: SW-620 colon
ACHN renal = tested on: ACHN renal
HL-60(TB) leukemia = tested on: HL-60(TB) leukemia
PC-3 prostate = tested on: PC-3 prostate
LOX IMVI melanoma = tested on: LOX IMVI melanoma
HT29 colon = tested on: HT29 colon
MDA-MB-435 = tested on: MDA-MB-435
T-47D breast = tested on: T-47D breast
SNB-75 CNS = tested on: SNB-75 CNS
NCI-H460 lung = tested on: NCI-H460 lung
RPMI-8226 leukemia = tested on: RPMI-8226 leukemia
SNB-19 CNS = tested on: SNB-19 CNS
NCI-H23 lung = tested on: NCI-H23 lung
OVCAR-8 ovarian = tested on: OVCAR-8 ovarian
SF-539 CNS = tested on: SF-539 CNS
NCI-H226 lung = tested on: NCI-H226 lung
COLO 205 colon = tested on: COLO 205 colon
MDA-MB-231 breast = tested on: MDA-MB-231 breast
U251 CNS = tested on: U251 CNS
UO-31 renal = tested on: UO-31 renal
NCI/ADR-RES ovarian = tested on: NCI/ADR-RES ovarian
HCT-116 colon = tested on: HCT-116 colon
BT-549 breast = tested on: BT-549 breast
MCF7 breast = tested on: MCF7 breast

O=C(NNS(=O)(=O)c1ccc(Cl)cc1Cl)c1cccnc1Nc1ccc(Cl)cc1
GI50 (786-0 renal): 19.6 µM | TGI (786-0 renal): 49.4 µM | GI50 (SK-MEL-2 melanoma): 18.6 µM | TGI (SK-MEL-2 melanoma): 42.5 µM | GI50 (CAKI-1 renal): 19.8 µM | TGI (CAKI-1 renal): 58.7 µM | GI50 (DU-145 prostate): 41.8 µM | TGI (DU-145 prostate): > 100 µM | GI50 (A549 NSCLC): 24.4 µM | TGI (A549 NSCLC): 70.1 µM | GI50 (K-562 leukemia): 12.9 µM | TGI (K-562 leukemia): 25.6 µM | GI50 (SR leukemia): 14.8 µM | TGI (SR leukemia): 38.1 µM | GI50 (SK-MEL-5 melanoma): 14.2 µM | TGI (SK-MEL-5 melanoma): 29.7 µM | GI50 (CCRF-CEM leukemia): 6.62 µM | TGI (CCRF-CEM leukemia): > 100 µM | GI50 (SF-268 CNS): 36.5 µM | TGI (SF-268 CNS): > 100 µM | GI50 (RXF 393 renal): 16.9 µM | TGI (RXF 393 renal): 43.8 µM | GI50 (SN12C renal): 31.4 µM | TGI (SN12C renal): > 100 µM | GI50 (SK-MEL-28 melanoma): 35.4 µM | TGI (SK-MEL-28 melanoma): > 100 µM | GI50 (HCT-15 colon): 33.4 µM | TGI (HCT-15 colon): > 100 µM | GI50 (OVCAR-3 ovarian): 20.6 µM | TGI (OVCAR-3 ovarian): > 100 µM | GI50 (UACC-62 melanoma): 22 µM | TGI (UACC-62 melanoma): 75.4 µM | GI50 (KM12 colon): 13.8 µM | TGI (KM12 colon): 28.6 µM | GI50 (SF-295 CNS): 30.2 µM | TGI (SF-295 CNS): 77.7 µM | GI50 (HOP-62 NSCLC): 16.6 µM | TGI (HOP-62 NSCLC): 37.7 µM | GI50 (MALME-3M melanoma): 11.1 µM | TGI (MALME-3M melanoma): 34.9 µM | GI50 (SK-OV-3 ovarian): 17.1 µM | TGI (SK-OV-3 ovarian): 52.4 µM | GI50 (HS 578T breast): 17.8 µM | TGI (HS 578T breast): 41.8 µM | GI50 (OVCAR-5 ovarian): 26.2 µM | TGI (OVCAR-5 ovarian): 78.2 µM | GI50 (MOLT-4 leukemia): 19.6 µM | TGI (MOLT-4 leukemia): 58.2 µM | GI50 (HCC-2998 colon): 13.6 µM | TGI (HCC-2998 colon): 29 µM | GI50 (UACC-257 melanoma): 22.9 µM | TGI (UACC-257 melanoma): 60.5 µM | GI50 (A498 renal): 25 µM | TGI (A498 renal): 47.9 µM | GI50 (EKVX NSCLC): 26.1 µM | TGI (EKVX NSCLC): > 100 µM | GI50 (HOP-92 NSCLC): 14.6 µM | TGI (HOP-92 NSCLC): 40.7 µM | GI50 (TK-10 renal): 28.9 µM | TGI (TK-10 renal): 84.3 µM | GI50 (M14 melanoma): 19 µM | TGI (M14 melanoma): 38.7 µM | GI50 (OVCAR-4 ovarian): 28.7 µM | TGI (OVCAR-4 ovarian): > 100 µM | GI50 (SW-620 colon): 28.4 µM | TGI (SW-620 colon): > 100 µM | GI50 (ACHN renal): 29.6 µM | TGI (ACHN renal): 93.5 µM | GI50 (HL-60(TB) leukemia): 23.8 µM | TGI (HL-60(TB) leukemia): 44.4 µM | GI50 (PC-3 prostate): 23.4 µM | TGI (PC-3 prostate): 80.4 µM | GI50 (LOX IMVI melanoma): 21.1 µM | TGI (LOX IMVI melanoma): 46.5 µM | GI50 (HT29 colon): 22.8 µM | TGI (HT29 colon): 54.2 µM | GI50 (MDA-MB-435): 27.3 µM | TGI (MDA-MB-435): 81.7 µM | GI50 (T-47D breast): 10.8 µM | TGI (T-47D breast): 50.7 µM | GI50 (SNB-75 CNS): 22.4 µM | TGI (SNB-75 CNS): 84.4 µM | GI50 (NCI-H460 lung): 35.7 µM | TGI (NCI-H460 lung): > 100 µM | GI50 (RPMI-8226 leukemia): 17.7 µM | TGI (RPMI-8226 leukemia): 53.2 µM | GI50 (SNB-19 CNS): 27 µM | TGI (SNB-19 CNS): > 100 µM | GI50 (NCI-H23 lung): 17.3 µM | TGI (NCI-H23 lung): 42.6 µM | GI50 (OVCAR-8 ovarian): 26.7 µM | TGI (OVCAR-8 ovarian): 74.9 µM | GI50 (SF-539 CNS): 19 µM | TGI (SF-539 CNS): 44.5 µM | GI50 (NCI-H226 lung): 23.9 µM | TGI (NCI-H226 lung): 58.5 µM | GI50 (COLO 205 colon): 12.1 µM | TGI (COLO 205 colon): 24.4 µM | GI50 (MDA-MB-231 breast): 19 µM | TGI (MDA-MB-231 breast): 50.7 µM | GI50 (U251 CNS): 34.4 µM | TGI (U251 CNS): > 100 µM | GI50 (UO-31 renal): 37.2 µM | TGI (UO-31 renal): > 100 µM | GI50 (NCI/ADR-RES ovarian): 23.4 µM | TGI (NCI/ADR-RES ovarian): 76.5 µM | GI50 (HCT-116 colon): 15.5 µM | TGI (HCT-116 colon): 28.8 µM | GI50 (BT-549 breast): 16.8 µM | TGI (BT-549 breast): 35 µM | GI50 (MCF7 breast): 35.2 µM | TGI (MCF7 breast): > 100 µM
